As usually defined, the Km is the substrate concentration at which the rate is half of its maximum.

“And” between values parts separate entries of the source, which are not always exact repeats. Equal entries are not always repeated.

One test deals with L-amino acid oxidase. As to the kind of experiment: Inhibition and activation of L-amino acid oxidase by metallic ions or other additives. It is filed as biochemical, Colletotrichum sp. M5073. As to conditions: 1 mM additive, 0.01 U of the enzyme; None = 100. As to the method:
(§1) 0.9 ml of a reaction solution of the following composition is placed in a small test tube and warmed to 37° C.
(§2) 0.1 ml of a liquid containing L-amino acid oxidase is added thereto and reaction continued for exactly for 10 minutes at 37° C. The reaction was terminated by adding 2.0 ml of ethanol. Then, the amount of hydrogen peroxide formed is colorimetrically determined from absorbance measured at 480 nm. The enzymatic activity is determined from the amount of the hydrogen peroxide formed with the following equation: […]
(§3) The amount of the enzyme which produces 1μ mole of hydrogen peroxide at 37° C. in one minute is defined as one unit (1 U).
The enzymatic activities of the enzyme are measured with the same procedures as the measurement of the enzyme activity using 0.01 U of the enzyme, and adding 1 mM of various metallic ions or other additives as shown in Table 2 below to the reaction solution. Cyano ion has a strong inhibiting effect on the enzyme and no ion is found to have an activating effect on the enzyme.
For `O=C(O)CN(CCN(CC(=O)O)CC(=O)O)CC(=O)O` [EDTA], the “Relative activity (%) with additive” value is recorded as 100%.
`[Cl-].[Cl-].[Co+2]` [CoCl2]: the “Relative activity (%) with additive” value came out at 50.6%.
Turning to `[Cl-].[Cl-].[Mg+2]` [MgCl2], the “Relative activity (%) with additive” value is given as 99.2%.
Regarding `[Cl-].[Li+]` [LiCl], the “Relative activity (%) with additive” value worked out at 97.5%.
On the same count and under the same terms, to `[Cl][Mn][Cl]` [MnCl2] belongs 97.1%; to `Cl.N` [NH4 Cl], 97.1%.
Still for that read-out and setting: to `[N-]=[N+]=[N-].[Na+]` [NaN3] belongs 100%; to `[Ba+2].[Cl-].[Cl-]` [BaCl2], 97.1%; to `[Ca+2].[Cl-].[Cl-]` [CaCl2], 95.4%.
The same measure, in the same setting: to `[F-].[Na+]` [NaF] belongs 97.9%.
Take `[Cl-].[Cl-].[Zn+2]` [ZnCl2]: the “Relative activity (%) with additive” value worked out at 94.2%.

In a further test the test system is L-amino acid oxidase. As to the kind of experiment: Km value of L-amino acid oxidase. Format: biochemical, Colletotrichum sp. M5073. The settings on record: upon L-leucine.
`CC(C)C[C@H](N)C(=O)O` [L-Leucine]: the Michaelis-Menten constant (Km) amounted to 170 µM.

The test system of another test is L-amino acid oxidase. Description: Substrate specificity of L-amino acid oxidase (enzyme activity measurement, H2O2 colorimetry). It is filed as biochemical, Colletotrichum sp. M5073.
Conditions: not given
As to the method: as §1, §2, §3
Enzymatic activities of the enzyme on various substrates as shown in the Table 1 below are measured with the same procedures as the measurement of the enzyme activity by using 5 m mole of the substrate and 0.007 U of the enzyme.
For the compound `CC(C)C[C@H](N)C(=O)O` [L-Leucine], the “Enzyme acts upon substrate” value is “acts upon”.

Still in this test, the particulars now being: 5 m mole of the substrate, 0.007 U of the enzyme; 37° C., 10 minutes; L-Leucine = 100.
Take `N[C@H](Cc1ccccc1)C(=O)O` [D-Phenylalanine]: the “Relative activity (%) on substrate” value came to 0.0%.
On to `C[C@H](N)C(=O)O` [L-Alanine], for which the “Relative activity (%) on substrate” value was 12.3%.
In the case of `CC[C@H](C)[C@H](N)C(=O)O` [L-Isoleucine], the “Relative activity (%) on substrate” value was 29.1%.
On the same count and under the same terms, to `NCC(=O)O` [L-Glycin] belongs 0.0%; to `NC(Cc1c[nH]c2ccccc12)C(=O)O` (racemic) [DL-Tryptophan], 27.1%.
As for `CC[C@H](C)[C@H](N)C(=O)O` (racemic) [DL-Isoleucine], the “Relative activity (%) on substrate” value is given as 15.3%.
Still for that read-out and setting: to `CSCC[C@H](N)C(=O)O` [L-Methionine] belongs 93.6%; to `N[C@@H](CO)C(=O)O` [L-Serine], 0.0%.
Still for that read-out and setting: under `N[C@@H](Cc1ccccc1)C(=O)O` [L-Phenylalanine] stands 70.0%; under `CC(C)C[C@H](N)C(=O)O` [L-Leucine], 100.0%; under `N=C(N)NCCC[C@H](N)C(=O)O` [L-Arginine], 39.9%.
Consider `NCCCC[C@H](N)C(=O)O` [L-Lysine], for which the “Relative activity (%) on substrate” value worked out at 29.6%.
Still for that read-out and setting: under `N[C@@H](CC(=O)O)C(=O)O` [L-Aspartic acid] stands 0.0%; under `N[C@@H](Cc1ccc(O)cc1)C(=O)O` [L-Tyrosine], 22.2%; under `C[C@@H](N)C(=O)O` [D-Alanine], 0.0%.
Still for that read-out and setting: under `N[C@@H](Cc1c[nH]cn1)C(=O)O` [L-Histidine] stands 11.8%; under `N[C@@H](CCC(=O)O)C(=O)O` [L-Glutamic acid], 0.0%.
On to `N[C@@H](CS)C(=O)O` [L-Cysteine], for which the “Relative activity (%) on substrate” value was 6.4% and 0.0%.

The record behind these values is US4357425A, “Process for producing L-amino acid oxidase” (Toyo Jozo Company, Ltd., priority 1980, dated 1982).
